# Experimental data as given in patent US11976083B2, “Inhibitors of peptidylarginine deiminases” (Gilead Sciences, Inc., priority 2020, dated 2024).
# Biological target: T1, human PAD4 (Homo sapiens, UniProt Q9UM07)
# T1 construct: human PAD4 (NM_012387), A2-P663, was PCR amplified; His-SUMO (N, cleaved yes); made in house; host or cells: E. coli BL21(DE3)
# Test: In vitro PAD4 BAEE biochemical assay
# Details: BAEE substrate 3 mM, 5 nM PAD4, 2 mM calcium chloride; geometric mean of multiple experiments
# Outline: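 PAD4 5 nM, CaCl2 2 mM, BAEE 3 mM final; 50 mM MOPS pH 7.6, 50 mM NaCl, 0.05% Tween-20, 2 mM DTT. Cpd + enzyme 30 min 25 °C; substrate 2 h 25 °C; EDTA stop; OPA detection 1 h. IC50 4-parameter fit.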
# T1 sequence (Q9UM07 2-663): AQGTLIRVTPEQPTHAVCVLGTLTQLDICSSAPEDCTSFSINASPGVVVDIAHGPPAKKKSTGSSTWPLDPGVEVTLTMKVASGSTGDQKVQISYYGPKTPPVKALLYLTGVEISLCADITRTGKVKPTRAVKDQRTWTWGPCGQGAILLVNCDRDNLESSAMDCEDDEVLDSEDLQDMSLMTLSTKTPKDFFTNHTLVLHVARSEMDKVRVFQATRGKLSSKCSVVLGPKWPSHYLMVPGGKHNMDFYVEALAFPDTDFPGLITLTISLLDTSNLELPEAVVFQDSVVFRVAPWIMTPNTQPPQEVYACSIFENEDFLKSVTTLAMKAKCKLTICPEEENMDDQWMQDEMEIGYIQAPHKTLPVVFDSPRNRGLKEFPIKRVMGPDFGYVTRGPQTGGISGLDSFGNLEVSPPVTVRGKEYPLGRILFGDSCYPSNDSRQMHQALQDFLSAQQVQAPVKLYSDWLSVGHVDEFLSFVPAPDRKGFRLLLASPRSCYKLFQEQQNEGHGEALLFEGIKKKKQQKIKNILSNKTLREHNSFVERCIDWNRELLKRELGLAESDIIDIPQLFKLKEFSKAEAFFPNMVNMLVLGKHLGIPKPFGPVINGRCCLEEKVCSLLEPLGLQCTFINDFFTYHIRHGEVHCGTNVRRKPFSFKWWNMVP
row,IC50 [nM],SMILES
1,44,"C[C@H]1NC(=O)c2ccccc2CCCCCn2c(-c3nc4cc(C(=O)N[C@H]5CNCC[C@@H]5F)c(F)cc4n3C)cc3ccc1nc32 [Example 593, 6-fluoro-~{N}-[(3~{S},4~ {S})-4-fluoro-3-piperidyl]-1-methyl-2-[(2~{R})-2-methyl-4-oxo-3,16,22-triazatetracyclo[14.5.2.0^ {5,10}.0^{19,23}]tricosa-1(21),5(10),6,8,17, 19,22-heptaen-17-yl] benzimidazole-5-carboxamide]"
2,239,"COc1cc(C(=O)N2CC[C@@H]3CCN[C@@H]3C2)cc2nc(-c3cc4ccc5nc4n3CCCCC[C@@H]3C[C@H]3C(=O)N[C@@H]5C)n(C)c12 [Example 532, (2~{R},5~{R},7~{R})-14-[5-[(3~{a}~{S}, 7~{a}~{S})-1,2,3,3~ {a},4,5,7,7~{a}-octahydropyrrolo[2,3-c]pyridine-6-carbonyl]-7-methoxy-1-methyl-benzimidazol-2-yl]-2-methyl-3,13,19-triazatetracyclo[11.5.2.0^ {5,7}.0^{16,20}]icosa-1 (19),14,16(20),17-tetraen-4-one]"
3,17,"COc1cc(C(=O)N2C[C@H](N)[C@@H]3CC[C@H]2C3)cc2nc(-c3cc4ccc5nc4n3CCCCC[C@]3(F)C[C@H]3C(=O)N[C@@H]5C)c(C3CC3)n12 [Example 758, (2~{R},5~{S},7~{S})-14-[7-[(1~{S},4~{R},5~{R})-4-amino-2-azabicyclo[3.2.1]octane-2-carbonyl]-3-cyclopropyl-5-methoxy-imidazo[1,2-a]pyridin-2-yl]-7-fluoro-2-methyl-3,13,19-triazatetracyclo [11.5.2.0^{5,7}.0^{16,20}] icosa-1(19),14,16(20),17-tetraen-4-one]"
4,117,"CO[C@@H]1CCN(C(=O)c2cnc3c(c2)nc(-c2cc4ccc5nc4n2CCCCC[C@@H]2C[C@H]2C(=O)N[C@@H]5C)n3C2CC2)C[C@@H]1N [Example 574, (2~{R},5~{R},7~{R})-14-[6-[(3~{S},4~{R})-3-amino-4-methoxy-piperidine-1-carbonyl]-3-cyclopropyl-imidazo [4,5-b]pyridin-2-yl]-2-methyl-3,13,19-triazatetracyclo [11.5.2.0^{5,7}.0^{16,20}] icosa-1(19),14,16(20),17-tetraen-4-one]"
5,231,"COc1cc(C(=O)N2CC[C@@H](OC)[C@@H](N)C2)cc2nc(-c3cc4ccc5nc4n3CCCCCC(C)(C)C(=O)N[C@@H]5C)n(C)c12 [Example 61, (10~{R})-16-[5-[(3~{S},4~{R})-3-amino-4-methoxy-piperidine-1-carbonyl]-7-methoxy-1-methyl-benzimidazol-2-yl]-7,7,10-trimethyl-1,9,18-triazatricyclo[9.5.2.0^{14,17}]octadeca-11(18),12,14(17),15-tetraen-8-one]"
6,38,"C[C@H]1NC(=O)c2cc3ccccc3nc2CCCCCn2c(-c3nc4cc(C(=O)N5C[C@H](N)[C@@H]6CC[C@H]5C6)cc(F)c4n3C3CC3)cc3ccc1nc32 [Example 476, (2~{R})-21-[5-[(1~{S),4~{R},5~{R})-4-amino-2-azabicyclo[3.2.1]octane-2-carbonyl]-1-cyclopropyl-7-fluoro-benzimidazol-2-yl]-2-methyl-3,13,20,26-tetrazapentacyclo[18.5.2.0^{5,14).0^ {7,12}.0^{23,27}]heptacosa-1(26),5(14),6,8,10,12,21,23(27),24-nonaen-4-one]"
7,275,"COc1cc(C(=O)N[C@H]2CNCCC2(F)F)cc2nc(-c3cc4ccc5nc4n3CCCCCCC(C)(C)C(=O)N[C@@H]5C)n(C)c12 [Example 294, ~{N}-[(3~{S})-4,4-difluoro-3-piperidyl]-7-methoxy-1-methyl-2-[(11~{R})-8,8,11-trimethyl-9-oxo-1,10,19-triazatricyclo[10.5.2.0^{15,18}]nonadeca-12(19),13,15(18),16-tetraen-17-yl]benzimidazole-5-carboxamide]"
